In publication PMC8229129, “Local Colonic Administration of a Serine Protease Inhibitor Improves Post-Inflammatory Visceral Hypersensitivity in Rats” (Pharmaceutics, 2021):

Test system: trypsin-like activity in colonic tissue
Experiment: Trypsin-like activity in colonic tissue after intracolonic administration (fluorogenic substrates)
Type: in vivo, Sprague–Dawley rats
Conditions: post-colitis rats, 5 mg/kg intracolonic, colon harvested 90 min after administration, median (IQR), n = 12; vehicle 1.08 (1.19), p < 0.01
Protocol: The serine protease inhibitor UAMC-00050 (0.1–1.0–2.5–5.0 mg/kg, dissolved in a volume of 200 µL) or its vehicle (5% DMSO in H2O) was delivered colonically using a flexible catheter (18 G, length 4.5 cm) under short-lasting isoflurane anesthesia (5.0% induction, 1.5% maintenance). To prevent expulsion of the enema, animals were held in a Trendelenburg position for 90 s. Doses for intracolonic administration were based on the doses known to be effective via an i.p. administration and adapted afterwards based on preliminary results.
Trypsin-like, chymotrypsin-like, cathepsin G, elastase-like, and kallikrein activities were determined in colon tissue and fecal samples to profile serine protease activity. […]
Boc-Gln-Ala-Arg-AMC (75 µM) and n-Tosyl-Gly-Pro-Arg-AMC (100 µM) in 50 mM Tris-HCl pH 8.0 containing 120 mM NaCl were used to measure the trypsin-like activity. […] The fluorescence was measured during 20 min at 37 °C on a Tecan Infinite F200 Pro microtiter plate reader. The other activities were assessed in a similar assay, using the substrates mentioned below. Chymotrypsin-like and kallikrein activity were measured with Suc-Ala-Ala-Pro-Phe-AMC (0.45 mM) and H-Pro-Phe-Arg-AMC (0.45 mM), respectively. Elastase-like activity was measured using two assays, one using Suc-Ala-Ala-Pro-Val-AMC as a substrate and the other using Suc-Ala-Ala-Ala-AMC (both 0.45 mM). […]

CC(=O)Nc1ccc(OP(=O)(Oc2ccc(NC(C)=O)cc2)C(Cc2ccc(N=C(N)N)cc2)NC(=O)OCc2ccccc2)cc1.Cl (stereo not shown) [UAMC-00050]
Trypsin-like activity in colonic tissue (Tos-Gly-Pro-Arg-AMC): 0.23 (0.18) U/g
